From US11590242B2, “Antibody-mediated autocatalytic, targeted delivery of nanocarriers to tumors” (Yale University, priority 2016, dated 2023)

What was measured:
[1] = Blood concentrations of DOX-NPs with and without 3E10^EN as a function of time; assay type: in vivo, BALB/c mice; details: 1 mg DOX-NPs i.v., coumarin 6 co-loaded, 5 min-48 h
Procedure: Blood concentrations of DOX-NPs with and without conjugation of 3E10^EN recorded as a function of time. To enable detection of NPs, NPs were co-loaded with 1% coumarin 6. Six BALB/c mice were randomly assigned to two groups, which received intravenous administration of 1 mg DOX-NPs with and without conjugation of 3E10^EN, respectively. At 5 min, 15 min, 30 min, 1 h, 2 h, 4 h, 6 h, 24 h, 36 h and 48 h post injection, 20 uL blood sample from each mouse was collected into a 1.5 mL Eppendorf tube and lyophilized. Then, 100 uL DMSO and 1 mL acetonitrile were added to each tube. After sonication in a water bath sonicator for 15 min, samples were subjected to centrifugation at 4000 rpm for 20 min to remove cellular fragments and blood albumin. Then, 0.8 ml supernatant from each sample was collected and added to an eppendorf tube. The acetonitrile was evaporated and the dye in the DMSO was quantified at Ex/Em 444/505 nm using a plate reader (BioTek ELx800).

Cal12T lung cancer cells = assay: Delivery of nanoparticles into living cells (fluorescence microscopy, anti-myc immunostaining); assay type: cell-based; details: fixed cells
[2] = tested on: 4T1 murine breast cancer cells; assay: Cytotoxicity evaluation, MTT assay; assay type: cell-based, mouse; details: three days treatment, listed as Free DOX
Procedure: All chemicals were purchased from Sigma-Aldrich unless otherwise noted. The mouse mammary tumor cell line 4T1 was obtained from American Type Culture Collection (ATCC) and cultured in DMEM medium (Invitrogen) supplemented with 10% fetal bovine serum (Invitrogen), 100 units/ml penicillin and 100 ug/ml streptomycin (Invitrogen), in a 37° C. incubator containing 5% CO2.
4T1 cells were plated in a 96-well cell culture plate at a concentration of 2×10^3 per well and incubated with concentrations of nanoparticles ranging from 1.25 to 500 ug/mL. The same amounts of free DOX were added to parallel wells as controls. Three days after treatment, the effect of treatments on cell proliferation was determined using the standard MTT assay.

4T1 tumors = assay: Antitumor evaluation in mouse tumor xenografts; assay type: in vivo, mice; details: end of study, vs PBS control, i.v. three times a week
Procedure: Mice bearing 4T1 tumors were established as described above. […] Treatment was performed 3 times per week. Nanoparticles were administered at 1 mg, equal to 80 ug DOX per mouse. Tumor sizes were measured three times a week. Mice were euthanized when tumor volume reached 1000 mm^3, at which point the tumors were excised and fixed in formalin for immunohistochemistry. Serial sections were obtained and stained with hematoxylin and eosin (H&E) and Terminal Deoxynucleotidyl Transferase (TUNEL) for analysis of therapeutic effect. The growth curve was plotted using the mean of the tumor volumes for each treatment group, at each timepoint.

Molecule | Circulation life of NPs [1] | Subcellular localization of di-scFv (Cal12T lung cancer cells) | Effect on viability of 4T1 cells [2] | Reduction of tumor volume (4T1 tumors)
3E10^EN: enhanced di-single chain variable fragment of anti-DNA antibody 3E10 with D31N mutation, SEQ ID NO:12 | did not alter the circulation life of NPs | penetrated into cell nuclei |  | 
COc1cccc2c1C(=O)c1c(O)c3c(c(O)c1C2=O)C[C@@](O)(C(=O)CO)C[C@@H]3O[C@H]1C[C@H](N)[C@H](O)[C@H](C)O1 [DOX, doxorubicin] |  |  | comparable inhibition of cells | 26%
